Read-outs that look alike come from different tables or passages of the source.

In the test the test system is reverse transcriptase. The method, then:
Thaw all components, except the reverse transcriptase, at room temperature. Mix gently, but thoroughly, and then centrifuge at 4° C. to collect contents to the bottom of the tube. Chill on ice before using. Centrifuge again briefly at 4° C. if needed.
To a mixture of Taq DNA polymerase, dNTP (dATP, dCTP, dGTP and dTTP), magnesium chloride, stabilizers and SdC, is added a forward primer, a reverse primer, nuclease-free water and a reverse transcriptase. Assemble the reaction cocktail with all required components except sample template (total RNA) and dispense equal aliquots into each reaction tube. Add target sample (RNA template) to each reaction as the final step 5-10 μl volumes.
The reaction mixture is then incubated in a real-time thermal detection system as follows: • cDNA synthesis: 10 min at 50° C. • reverse transcriptase inactivation: 5 min at 95° C. • PCR cycling and detection (30 to 45 cycles): 10 sec at 95° C., followed by 30 sec at 55° C. to 60° C.

In the case of `Cc1ccc(C(=O)Nc2ccc(S(=O)(=O)O)c3cc(S(=O)(=O)O)cc(S(=O)(=O)O)c23)cc1NC(=O)c1cccc(NC(=O)Nc2cccc(C(=O)Nc3cc(C(=O)Nc4ccc(S(=O)(=O)O)c5cc(S(=O)(=O)O)cc(S(=O)(=O)O)c45)ccc3C)c2)c1` [suramin], for the setting “4 ng/μl suramin vs absence”, the “inhibition of reverse transcriptase in one-step RT-PCR” value is “reduces the inhibition of reverse transcriptase” and the “specificity of one-step RT-PCR” value is recorded as “significantly improves the specificity of one-step RT-PCR”.
Consider “phosphorothioate oligodeoxycytosine [SdC]”, for which, under “0.1, 0.5, 2 and 10 nM SdC”, the “inhibition of reverse transcriptase in one-step RT-PCR” value was “reduces the inhibition of reverse transcriptase” and the “specificity of one-step RT-PCR” value is recorded as “significantly improves the specificity of one-step RT-PCR”.

The record behind these values is patent publication US9200318B2, “Reduced inhibition of one-step RT-PCR” (Bio Rad Laboratories, Inc., priority 2007, dated 2015).
